Read-outs that look alike come from different tables or passages of the source. *1 amine or outer side, *2 acyl side, *3 side chain or, on linkers, in order; H or OH if unused. Where a SMILES comes first, the peptide text is derived from it. Bridges are numbered along the chain shown (N, C = ends). Roman numbers before positions name the chains, in order. [ ]: non-standard residue; d: D form. Hexamethylenediamine = C(CCCN[*:2])CCN[*:1]; Dip = N[C@H](C(=O)O)C(c1ccccc1)c1ccccc1; Chg = N[C@H](C(=O)O)C1CCCCC1; NMeA = CN[C@@H](C)C(=O)O
Assays:
SHP2 = target: T1, SHP2 (Homo sapiens, UniProt Q06124); assay: Cellular thermal shift assay (CETSA); assay type: binding; conditions: NCI‐H2122 cell lysate
T1 construct: endogenous in cells; host or cells: NCI-H2122
T1 sequence (Q06124 1-593): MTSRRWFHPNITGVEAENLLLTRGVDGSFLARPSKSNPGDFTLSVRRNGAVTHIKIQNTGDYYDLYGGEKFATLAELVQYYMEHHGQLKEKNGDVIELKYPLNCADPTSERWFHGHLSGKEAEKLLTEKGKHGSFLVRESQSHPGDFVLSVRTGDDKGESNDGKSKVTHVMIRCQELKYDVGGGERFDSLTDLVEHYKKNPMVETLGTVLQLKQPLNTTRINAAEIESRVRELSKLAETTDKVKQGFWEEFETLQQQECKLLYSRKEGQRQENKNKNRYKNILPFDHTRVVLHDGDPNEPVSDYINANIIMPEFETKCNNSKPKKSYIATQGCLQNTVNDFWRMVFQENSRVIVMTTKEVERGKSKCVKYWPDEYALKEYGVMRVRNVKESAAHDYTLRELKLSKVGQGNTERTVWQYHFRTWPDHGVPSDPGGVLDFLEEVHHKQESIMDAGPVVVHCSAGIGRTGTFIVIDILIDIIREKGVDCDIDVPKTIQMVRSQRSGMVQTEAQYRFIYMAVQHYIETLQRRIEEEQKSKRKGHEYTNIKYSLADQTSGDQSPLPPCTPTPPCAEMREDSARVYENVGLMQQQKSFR
Method: NCI‐H2122 cells were harvested and resuspended with pre‐cooled PBS containing 1% cocktail, which was then frozen in liquid nitrogen for 5 min and thawed in a water bath at 37 °C for 5 min for three repetitions. The supernatant was collected via centrifugation at 4 °C (15 000 × g, 20 min), divided into two equal portions; one was added with test drugs or various concentrations of embelin, and the other was added with DMSO as control and subsequently incubated at 25 °C for 30 min. All samples were heated at temperatures ranging from 52–70 °C for 3 min, and subsequently in an ice bath for 3 min and collected by centrifugation at 4 °C (15 000 × g, 20 min), and added with protein sampling buffer at 100 °C for 5 min, followed by analysis of protein stability using western blotting.

A549 and NCI‐H2122 cells = assay: Cell proliferation in monolayer culture (CCK-8); assay type: cell-based, human
Method: For the adherent cell viability assay, cells in the logarithmic growth phase were seeded in 96-well culture plates at a density of 5×103 well-1 and incubated overnight. Diluted compounds or DMSO were added, or specific treatments were incubated at 37 °C and 5% CO2 for 24 h or 48 h. Cell viability was determined using CCK-8 or CellLightTM Cell Viability Assay Kit, according to the manufacturer's protocol. The luminescence signals of the treated samples were normalized to those of the DMSO group. […]
Figure S7. Targeting SHP2 and XIAP produces a synthetic lethal effect. (A) Effects of NSC-87877 on cell viability of A549 and NCI-H2122 cells after 24 and 48 h were determined using the CCK-8. Bars, ± SEM. The curves were plotted using a variable slope (four-parameter) non-linear fit. (B, E, F, and I) Effects of Na3VO4 (B), birinapant (E), BV-6 (F), and LCL161 (I) on cell viability of human NCI-H2122 cells at 48 h were determined using the CCK-8. *p < 0.05, **p < 0.01 and ***p < 0.001 compared to control group (unpaired two-tailed Student’s t-test).(C, G) Effects of SHP099 (C) and GDC-0152 (G) on cell viability after 24 and 48 h were determined using the CCK-8. Bars, ± SEM. The curves were plotted using a variable slope (four-parameter) non-linear fit.(D, H) Effects of SHP099 (D) and GDC-0152 (H) on cell viability were determined after 48 h using intracellular ATP chemiluminescence. **p < 0.01 and ***p < 0.001 compared to control group (unpaired two-tailed Student’s t-test).(J) Effects of SHP099 and GDC-0152 separately and in combination, and the effect of embelin for 24 h on the cell viability were assessed using intracellular ATP […]
tailed Student’s t-test).(K) Effects of SHP099 and GDC-0152 separately and in combination with […] on the cell viability of human KRAS-WT and -mutant cells were assessed using a colony formation assay. (L, M) A549 and NCI-H2122 cells were instantaneously transfected with siPTPN11 and siXIAP separately and together for 24 h under

[1] = system: NCI-H2122, A549, and NCI-H1944 cells; assay: Cell senescence β-galactosidase staining; assay type: cell-based, human; conditions: NCI‐H2122 cells; candidate drugs 10 μM
Method: Cell senescence β-galactosidase staining
NCI-H2122, A549, and NCI-H1944 cells in the logarithmic growth phase were seeded into 48-well plates and cultured overnight. The supernatant was aspirated and fresh serum-free (0%), low-serum (3%), or regular serum (10%) medium with different drugs was added for 48 h. When the supernatant was discarded, β-galactosidase staining fixation fluid were added for 15 min and β-galactosidase staining solution were imported overnight at 37 ℃.
Finally, the staining results were recorded using an inverted microscope.

ΔSHP1 = target: T2, ΔSHP1 (Homo sapiens, UniProt P29350); assay: PTPs activity assay (DiFMUP); assay type: biochemical
T2 construct: His‐ΔSHP1, encompassing the peptide from amino acids 202–595 retaining PTP activity; His; made in house; host or cells: E. coli
Method: (§1) Catalytic activity screening methods for PTPs using candidate compounds were performed as previously described.^[ [77] ^] In brief, soluble fusion PTP proteins, His‐ΔSHP2, encompassing the peptide from amino acids 205–593 retaining PTP activity, His‐ΔSHP2^K325A, His‐ΔSHP1, encompassing the peptide from amino acids 202–595 retaining PTP activity, His‐PTP1B, His‐HePTP, His‐VHR, and His‐TCPTP were cloned, expressed, and purified in E. coli. After determining protein concentration using bicinchoninic acid (BCA) assay kit, 1 µg fusion protein, 10 µM library compound were added in 100 µL reaction mixture (55 mM 4‐(2‐hydroxyethyl)‐1‐piperazineethanesulfonic acid [HEPES], 100 mM sodium chloride [NaCl], 0.5 mM ethylenediaminetetraacetic acid [EDTA], 1 mM dithiothreitol [DTT], 0.01% Triton X‐100, 0.002% bovine serum albumin [BSA], and 0.1% dimethyl sulfoxide [DMSO]) and incubated at 37 °C for 30 min in the dark, with Na3VO4 as positive control. The detection substrate DiFMUP (50 µM) was promptly added to each reaction and functioned at 37 °C for 30 min in the dark. The fluorescence intensity was then measured using Multimode Plate Reader (λa = 358 nm, λe = 455 nm, PerkinElmer, USA).

PTP1B = target: T3, PTP1B (Homo sapiens, UniProt P18031); assay: PTPs activity assay (DiFMUP); assay type: biochemical
T3 construct: His; made in house; host or cells: E. coli
T3 sequence (P18031 1-435): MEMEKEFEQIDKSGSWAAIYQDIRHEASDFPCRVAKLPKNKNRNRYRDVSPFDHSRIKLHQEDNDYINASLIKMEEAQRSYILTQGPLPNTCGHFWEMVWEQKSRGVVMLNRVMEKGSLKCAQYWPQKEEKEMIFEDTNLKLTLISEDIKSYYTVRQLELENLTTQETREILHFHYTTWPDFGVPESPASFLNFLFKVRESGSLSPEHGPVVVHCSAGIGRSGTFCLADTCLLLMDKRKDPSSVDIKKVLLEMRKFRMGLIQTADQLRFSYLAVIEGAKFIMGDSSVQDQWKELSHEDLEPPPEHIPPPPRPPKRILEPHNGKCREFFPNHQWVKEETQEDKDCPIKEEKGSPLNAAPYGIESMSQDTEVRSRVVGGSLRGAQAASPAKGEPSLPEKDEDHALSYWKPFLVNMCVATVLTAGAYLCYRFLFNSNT
Method: as §1

ΔSHP2 = target: T4, ΔSHP2 (Homo sapiens, UniProt Q06124); assay: PTPs activity assay (DiFMUP); assay type: biochemical
T4 construct: His‐ΔSHP2, encompassing the peptide from amino acids 205–593 retaining PTP activity; His; made in house; host or cells: E. coli
T4 sequence (Q06124 205-593): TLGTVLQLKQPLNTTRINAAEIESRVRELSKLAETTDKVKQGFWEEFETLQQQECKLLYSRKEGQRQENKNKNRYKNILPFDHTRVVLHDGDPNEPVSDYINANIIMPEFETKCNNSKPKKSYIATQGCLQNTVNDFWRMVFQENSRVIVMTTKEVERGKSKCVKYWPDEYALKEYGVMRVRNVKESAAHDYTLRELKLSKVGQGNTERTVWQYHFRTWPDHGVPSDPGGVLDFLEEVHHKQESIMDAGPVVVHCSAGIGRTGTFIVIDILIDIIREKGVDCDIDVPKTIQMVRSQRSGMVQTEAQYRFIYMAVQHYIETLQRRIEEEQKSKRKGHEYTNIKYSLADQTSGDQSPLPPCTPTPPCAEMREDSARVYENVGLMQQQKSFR
Method: as §1

VHR = target: T5, VHR (Homo sapiens, UniProt P51452); assay: PTPs activity assay (DiFMUP); assay type: biochemical
T5 construct: His; made in house; host or cells: E. coli
Method: as §1

TCPTP = target: T6, TCPTP (Homo sapiens, UniProt P17706); assay: PTPs activity assay (DiFMUP); assay type: biochemical
T6 construct: His; made in house; host or cells: E. coli
T6 sequence (P17706 1-415): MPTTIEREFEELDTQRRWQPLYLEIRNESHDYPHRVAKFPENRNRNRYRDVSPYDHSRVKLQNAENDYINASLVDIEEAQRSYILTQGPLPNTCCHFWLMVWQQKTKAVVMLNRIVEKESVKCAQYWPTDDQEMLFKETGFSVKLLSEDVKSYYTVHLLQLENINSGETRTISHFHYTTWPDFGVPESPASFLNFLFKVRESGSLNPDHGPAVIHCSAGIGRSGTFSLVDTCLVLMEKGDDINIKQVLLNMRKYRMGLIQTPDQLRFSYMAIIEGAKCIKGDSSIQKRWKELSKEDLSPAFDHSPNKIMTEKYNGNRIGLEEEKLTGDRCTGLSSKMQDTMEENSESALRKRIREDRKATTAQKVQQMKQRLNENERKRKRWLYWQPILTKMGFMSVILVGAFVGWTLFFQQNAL
Method: as §1

HePTP = target: T7, HePTP (Homo sapiens, UniProt P35236); assay: PTPs activity assay (DiFMUP); assay type: biochemical
T7 construct: His; made in house; host or cells: E. coli
T7 sequence (P35236 1-360): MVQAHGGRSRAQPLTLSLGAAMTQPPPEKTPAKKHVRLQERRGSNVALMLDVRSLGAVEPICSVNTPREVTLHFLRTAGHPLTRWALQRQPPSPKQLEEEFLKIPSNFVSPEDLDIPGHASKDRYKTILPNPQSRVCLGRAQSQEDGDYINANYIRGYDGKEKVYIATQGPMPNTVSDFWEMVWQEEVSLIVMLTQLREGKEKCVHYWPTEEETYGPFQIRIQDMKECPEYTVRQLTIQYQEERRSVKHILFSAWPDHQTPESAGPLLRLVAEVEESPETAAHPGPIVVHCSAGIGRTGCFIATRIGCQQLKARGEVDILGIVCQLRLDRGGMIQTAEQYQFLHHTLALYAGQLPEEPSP
Method: as §1

T2 sequence (P29350 202-595, stated change not applied): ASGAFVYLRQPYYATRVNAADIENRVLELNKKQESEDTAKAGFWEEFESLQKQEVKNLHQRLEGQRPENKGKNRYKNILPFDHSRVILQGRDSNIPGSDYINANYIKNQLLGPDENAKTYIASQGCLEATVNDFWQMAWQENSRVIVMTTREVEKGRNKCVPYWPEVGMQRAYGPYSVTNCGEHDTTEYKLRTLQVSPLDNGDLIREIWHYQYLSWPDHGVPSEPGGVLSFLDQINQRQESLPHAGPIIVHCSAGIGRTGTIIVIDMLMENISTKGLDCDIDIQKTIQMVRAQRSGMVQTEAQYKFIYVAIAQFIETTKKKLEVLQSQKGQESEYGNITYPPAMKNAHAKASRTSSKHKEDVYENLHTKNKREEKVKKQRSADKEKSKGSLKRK
T5 sequence (P51452 whole entry): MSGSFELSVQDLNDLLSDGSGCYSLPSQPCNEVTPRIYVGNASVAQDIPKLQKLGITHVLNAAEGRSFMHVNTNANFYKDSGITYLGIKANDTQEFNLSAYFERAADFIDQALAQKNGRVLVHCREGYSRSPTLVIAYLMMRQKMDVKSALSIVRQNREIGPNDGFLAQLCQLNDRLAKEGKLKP

SMILES | effect on SHP2 protein stability (CETSA) (SHP2) | effect on cell proliferation in monolayer cell culture mode (A549 and NCI‐H2122 cells) | induction of cell senescence [1] | IC50 (ΔSHP1) [µM] | IC50 (PTP1B) [µM] | IC50 (ΔSHP2) [µM] | IC50 (VHR) [µM] | IC50 (TCPTP) [µM] | IC50 (HePTP) [µM] | IC50 (PTP1B; read-out: IC50 of PTPs PTP1B) [µM]
CN[C@@H](C)C(=O)N[C@H](C(=O)N1CCC[C@H]1C(=O)N[C@H](C(=O)NCCCCCCNC(=O)[C@@H](NC(=O)[C@@H]1CCCN1C(=O)[C@@H](NC(=O)[C@H](C)NC)C1CCCCC1)C(c1ccccc1)c1ccccc1)C(c1ccccc1)c1ccccc1)C1CCCCC1 [BV‐6] (I: H-[NMeA][Chg]P[Dip] / II: H-[NMeA][Chg]P[Dip]; linker I:C-II:C via Hexamethylenediamine) | did not affect SHP2 protein stability | partially inhibited cell proliferation | induced cellular senescence |  |  |  |  |  |  | 
CC[C@H](NC(=O)[C@H](C)NC)C(=O)N1C[C@@H](O)C[C@H]1Cc1c(-c2[nH]c3cc(F)ccc3c2C[C@@H]2C[C@H](O)CN2C(=O)[C@H](CC)NC(=O)[C@H](C)NC)[nH]c2cc(F)ccc12 [Birinapant] | did not affect SHP2 protein stability | almost no effect | induced cellular senescence |  |  |  |  |  |  | 
CC(C)=CCC[C@]1(C)C=Cc2c(O)c3c(c(CC=C(C)C)c2O1)O[C@]12C(=C[C@@H]4C[C@H]1C(C)(C)O[C@@]2(C/C=C(/C)C(=O)O)C4=O)C3=O [S2448, Gambogic acid] |  |  |  | > 200 | 30.3 | 11.8 | 123 | 294 | > 200 | 
Cc1cc2c(C(C)C)c(O)c(O)c(C=O)c2c(O)c1-c1c(C)cc2c(C(C)C)c(O)c(O)c(C=O)c2c1O [S2812, AT101] |  |  |  | 197 |  | 39.5 | 141 | 197 | 135 | 77.6
CC1(C)CCC2=C(O1)c1ccccc1C(=O)C2=O [S7261, β‐Lapachone] |  |  |  | > 200 |  | 34.2 | > 200 | > 200 | > 200 | > 200
CC1(C)CCC(CN2CCN(c3ccc(C(=O)NS(=O)(=O)c4ccc(NCC5CCOCC5)c([N+](=O)[O-])c4)c(Oc4cnc5[nH]ccc5c4)c3)CC2)=C(c2ccc(Cl)cc2)C1 [S8048, Venetoclax] |  |  |  | 81.3 |  | 2.07 | 36.9 | 9.43 | 20 | 16.6

Source: publication PMC12005787, “Synthetic Lethality of SHP2 and XIAP Suppresses Proliferation and Metastasis in KRAS‐mutant Nonsmall Cell Lung Cancer” (Advanced Science, 2025)
